{"source": "patent US20020028851A1", "about": "“Guanylhydrazones and their use to treat inflammatory conditions” (priority 1994, published 2002)", "key": {"RAW 264.7 cells": {"test_system": "RAW 264.7 cells", "experiment": "Whole cell inhibition assay for urea output", "format": "cell-based, murine", "settings": "for urea % suppression of induced production: γIFN+LPS, 18 hours", "method": "RAW 264.7 cells are plated in microculture wells at 1×10^6/ml in RPMI 1640 with 10% FBS and otherwise standard culture conditions and allowed to adhere for 5 hours. They are then activated with 25 U/ml γIFN and 0.1 μg/ml LPS in the presence of test inhibitors. The urea concentration present in the supernatant media, after 18 hours of culture, is determined by a colorimetric blood urea nitrogen diacetylmonoxime assay performed on an aliquot of the culture supernatant (Sigma Chem. Co., St. Louis, Mo.) and inhibition is expressed as the percentage urea compared to that of a parallel control culture treated identically except that the concentration of added inhibitor is zero.\nVarious concentrations of the test compounds are included in the media of the stimulated RAW 264.7 cells in culture. The concentration of urea and/or nitrite after 18 hours of activated culture is determined and compared to the uninhibited control value obtained from at least one parallel culture. The fractional reduction is calculated for each concentration of inhibitor and the IC50 (concentration giving 50% reduction) is interpolated. Compounds were dissolved in media with mild heat (60° C.). Those with limited solubility were dissolved in base. The concentration of stock solutions of those compounds which were not completely soluble was determined by OD280."}, "[1]": {"test_system": "Nude mice (nu/nu), AtT-20 cells", "experiment": "Tumor-associated cachexia model, urinary urea loss", "format": "in vivo", "settings": "for URINARY UREA LOSS / URINARY UREA LOSS, Sum totals: 0.4 mg/Kg daily i.p.; for URINARY UREA LOSS, Sum totals: sum of listed days", "method": "An animal model of tumor-associated protein catabolic illness (cachexia) was employed to directly test the efficacy of Compound No. 14 in reducing whole-body nitrogen losses. Tumors were induced in the appropriate groups by intramuscular inoculation with 15×10^6 AtT-20 cells; this model is known to cause a protein catabolic illness characterized by the consumption of normal quantities of food, but 20% net whole-body losses of protein within 14 days. Compound No. 14 was administered to the “treated” groups in a daily dose of 0.4 mg/Kg, intraperitoneal. Nude mice (nu/nu) were housed in metabolic cages (4 per cage) to facilitate collection of daily urine samples for 14 days. Food intake was measured daily. There were four groups of animals: 1) untreated, non-tumor bearing controls; 2) untreated, tumor-bearing; 3) treated, tumor-bearing, and 4) treated, non-tumor-bearing. Urine was collected and urinary urea losses quantified."}, "[2]": {"test_system": "Endothelial Derived Relaxing Factor (EDRF) activity", "experiment": "Acetylcholine-induced hypotensive (EDRF) response", "format": "in vivo, rats", "settings": "50 mg/Kg single intra-arterial dose; blood pressure 30 sec after ACh", "method": "Female Sprague-Dawley rats (225-250 g body weight) were anesthetized with nembutal (50 mg/Kg, i.p.), a tracheostomy tube was inserted, and the carotid artery and jugular vein cannulated by standard methods using polyethylene tubing (PE 50). Tracey, K. J., et al., 1986, SCIENCE 234, 470-474. Blood pressure was recorded continuously with a pressure transducer and recorder (Model RS-3200, Gould Inc.,). In the experiment shown here, animals received a single sterile intra-arterial dose of either N^G-methyl-L-arginine (NMA; Sigma; 10 mg/Kg), Compound No. 14 (50 mg/Kg), or vehicle (0.4 ml). Acetylcholine (ACh) diluted in LPS-free sterile water was administered via the jugular vein cannula at the doses indicated. The solutions were diluted to produce a constant injectable volume of 1 ml/Kg body weight.\nThe hypotensive (EDRF) response was measured as the decline in mean arterial blood pressure recorded 30 sec after administration of ACh. The number of animals studied at each dose of acetylcholine was 4-6 for each experimental condition; data are expressed as the mean +s.e.m."}, "TNF [3]": {"test_system": "TNF", "experiment": "TNF production by LPS/γIFN-stimulated RAW 264.7 cells", "format": "cell-based, murine", "method": "RAW 264.7 cells were plated in standard 6-well culture plates at a density of 10^6/well and allowed to adhere for from 2 hr to overnight. The medium was then replaced with medium containing the compound to be tested. One hour later, the medium was supplemented so as to contain 25 U/ml γIFN and 0.1 μg/ml LPS and the cultures incubated a further 18 hr. The medium was then collected, and cell debris removed by centrifugation. This conditioned supernatant was then assayed for the presence of TNF using standard methodologies: L929 cell cytotoxicity bioassay, radioimmunoassay or ELISA, and Western blotting with antibodies against murine TNF."}, "TNF [4]": {"test_system": "TNF", "experiment": "Cytokine production by LPS/γIFN-stimulated human PBMC: TNF", "format": "cell-based", "settings": "γIFN+LPS, 18 hr", "description": "Similar results concerning a variety of cytokines in addition to TNF, e.g., IL-6 and Macrophage Inflammatory Proteins-1α and -1β (MIP-1α and MIP-1β) were obtained using human peripheral blood as a source of monocytes. Human peripheral blood mononuclear cells (PBMC) were isolated using “FICOLL®”-based methods and plated in standard 6-well culture plates at a concentration of 10^6/well and allowed to adhere for from 2 hr to overnight whereupon non-adherent cells were washed out and the medium was then replaced with medium containing the compound to be tested. One hour later, the medium was supplemented so as to contain 25 U/ml γIFN and 0.1 μg/ml LPS and the cultures incubated a further 18 hr. The medium was then collected, and cell debris removed by centrifugation. This conditioned supernatant was then assayed for the presence of cytokines using the standard methodologies of L929 cell cytotoxicity bioassay and immunoassay (ELISA)."}, "[5]": {"settings": "over the 14 day period, per mouse"}}}
{"molecule": "CC(=NNC(=N)N)c1cc(NC(=O)CCCCCCCCC(=O)Nc2cc(C(C)=NNC(=N)N)cc(C(C)=NNC(=N)N)c2)cc(C(C)=NNC(=N)N)c1.Cl.Cl.Cl.Cl", "note": "[Compound 14, N,N′-bis(3,5-diacetyl-phenyl)decanediamide tetrakis(amidinohydrazone) tetrahydrochloride]", "values": [{"measurement": "urea % suppression of induced production", "setting": "RAW 264.7 cells; dose 2 μM", "value": 68, "unit": "%"}, {"measurement": "urea % suppression of induced production", "setting": "RAW 264.7 cells; dose 10 μM", "value": 78, "unit": "%"}, {"measurement": "urea % suppression of induced production", "setting": "RAW 264.7 cells; dose 50 μM", "value": 100, "unit": "%"}, {"measurement": "urea % suppression of induced production", "setting": "RAW 264.7 cells; dose 200 μM", "value": 100, "unit": "%"}, {"measurement": "IC50", "setting": "RAW 264.7 cells; interpolated, γIFN+LPS-activated RAW 264.7, 18 hours, read-out: I.C.50 (in parenthesis), inhibition of urea production", "value": 1000, "unit": "nM"}, {"measurement": "URINARY UREA LOSS", "setting": "[1]; Controls, Treated (non-tumor-bearing), day 2", "value": 193, "unit": "mg/group"}, {"measurement": "URINARY UREA LOSS", "setting": "[1]; Controls, Treated (non-tumor-bearing), day 4", "value": 285, "unit": "mg/group"}, {"measurement": "URINARY UREA LOSS", "setting": "[1]; Controls, Treated (non-tumor-bearing), day 6", "value": 397, "unit": "mg/group"}, {"measurement": "URINARY UREA LOSS", "setting": "[1]; Controls, Treated (non-tumor-bearing), day 7", "value": 247, "unit": "mg/group"}, {"measurement": "URINARY UREA LOSS", "setting": "[1]; Controls, Treated (non-tumor-bearing), day 8", "value": 257, "unit": "mg/group"}, {"measurement": "URINARY UREA LOSS", "setting": "[1]; Controls, Treated (non-tumor-bearing), day 10", "value": 216, "unit": "mg/group"}, {"measurement": "URINARY UREA LOSS", "setting": "[1]; Controls, Treated (non-tumor-bearing), day 11", "value": 239, "unit": "mg/group"}, {"measurement": "URINARY UREA LOSS", "setting": "[1]; Controls, Treated (non-tumor-bearing), day 12", "value": 203, "unit": "mg/group"}, {"measurement": "URINARY UREA LOSS", "setting": "[1]; Controls, Treated (non-tumor-bearing), day 13", "value": 242, "unit": "mg/group"}, {"measurement": "URINARY UREA LOSS", "setting": "[1]; Controls, Treated (non-tumor-bearing), day 14", "value": 157, "unit": "mg/group"}, {"measurement": "URINARY UREA LOSS, Sum totals", "setting": "[1]; Controls, Treated (non-tumor-bearing)", "value": 2436, "unit": "mg/group"}, {"measurement": "URINARY UREA LOSS", "setting": "[1]; Tumor, Treated, day 2 after tumor", "value": 195, "unit": "mg/group"}, {"measurement": "URINARY UREA LOSS", "setting": "[1]; Tumor, Treated, day 4 after tumor", "value": 368, "unit": "mg/group"}, {"measurement": "URINARY UREA LOSS", "setting": "[1]; Tumor, Treated, day 6 after tumor", "value": 295, "unit": "mg/group"}, {"measurement": "URINARY UREA LOSS", "setting": "[1]; Tumor, Treated, day 7 after tumor", "value": 312, "unit": "mg/group"}, {"measurement": "URINARY UREA LOSS", "setting": "[1]; Tumor, Treated, day 8 after tumor", "value": 275, "unit": "mg/group"}, {"measurement": "URINARY UREA LOSS", "setting": "[1]; Tumor, Treated, day 10 after tumor", "value": 206, "unit": "mg/group"}, {"measurement": "URINARY UREA LOSS", "setting": "[1]; Tumor, Treated, day 11 after tumor", "value": 219, "unit": "mg/group"}, {"measurement": "URINARY UREA LOSS", "setting": "[1]; Tumor, Treated, day 12 after tumor", "value": 115, "unit": "mg/group"}, {"measurement": "URINARY UREA LOSS", "setting": "[1]; Tumor, Treated, day 13 after tumor", "value": 201, "unit": "mg/group"}, {"measurement": "URINARY UREA LOSS", "setting": "[1]; Tumor, Treated, day 14 after tumor", "value": 187, "unit": "mg/group"}, {"measurement": "URINARY UREA LOSS, Sum totals", "setting": "[1]; Tumor, Treated", "value": 2373, "unit": "mg/group"}, {"measurement": "loss of urea prevented", "setting": "[1]; over the 14 day period", "value": "approximately 200 mg urea/mouse"}, {"measurement": "nitrogen retained (equivalent of urea loss prevented)", "setting": "[1]; [5]", "value": "approximately 100 mg"}, {"measurement": "protein retained (equivalent of urea loss prevented)", "setting": "[1]; [5]", "value": "~625", "unit": "mg"}, {"measurement": "wet muscle mass retained (equivalent of urea loss prevented)", "setting": "[1]; [5]", "value": "~2.7", "unit": "g"}, {"measurement": "acetylcholine-induced EDRF activity in vivo", "setting": "[2]", "value": "did not suppress"}, {"measurement": "reduction of TNF accumulation in the culture medium", "setting": "TNF [3]; 10 μM, L929 cell bioassay, 18 hr", "value": "more than 99%"}, {"measurement": "TNF protein in the medium (Western blot)", "setting": "TNF [3]; 5 and 25 μM", "value": "absence of TNF protein"}, {"measurement": "concentration that effectively inhibited production of TNF", "setting": "TNF [4]", "value": "10 to 20", "unit": "µM"}]}
